Here are results for twelve molecules from patent US20230364074A1, “Compounds and Compositions for Disrupting Programmed Ribosomal Frameshifting” (YALE UNIVERSITY, priority 2020, published 2023).

One data set has as its system HEK293T cells. The data set is described as follows: Cell viability in the high-throughput screen (cell nuclei numbers). The following applies: 10 μM compound, cell nuclei numbers. On the procedure: HEK293T cells were plated in 384 well plates at the density of 5,000 cells/well. Cells were treated by 10 μM candidate compounds 30 min before transfection of 15 ng mCherry-FSE-GFP(−1) plasmid DNA in each well. 24 hours after transfection, cell nuclei were stained with Hoechst dye. Cell nuclei, mCherry, and GFP signals were imaged using an automated fluorescent microscope with a 10x objective, and the acquired images were quantified using the CellProfiler image analysis package. Cell nuclei numbers were quantified as the metric for cell viability. Mean GFP and RFP intensity values were measured in all transfected cells, and GFP/mCherry mean intensity ratios were quantified as the metric for PRF efficiency. The mCherry-GFP fusion plasmid and the mCherry-FSE-GFP(0) plasmid were used as positive and negative controls for elevated and reduced GFP/mCherry ratios, respectively.

The next data set deals with SARS-CoV-2 FSE (−1 PRF). The data set is described as follows: cells. Particulars: Severe acute respiratory syndrome coronavirus 2, HEK-293T, 24 h; for inhibition at 10 µM: read-out: PERCENT EFFECT 2 (Decreased GFP/Red ratio); for activation at 10 µM: read-out: PERCENT EFFECT (Increased GFP/Red Ratio). Type of data set: cell-based.

For the molecule `CCC1=C[C@@H]2CN(C1)Cc1c([nH]c3ccccc13)[C@@](C(=O)OC)(c1cc3c(cc1OC)N(C)[C@H]1[C@@](O)(C(=O)OC)[C@H](OC(C)=O)[C@]4(CC)C=CCN5CC[C@]31[C@@H]54)C2` [Vinorelbine], in the data set with HEK293T cells, the “PERCENT VIABILITY” value stood at 27.8%. In the data set on SARS-CoV-2 FSE (−1 PRF), the inhibition at 10 µM was -29.2% and the activation at 10 µM was found to be 15.2%.
On the same counts, the results for `C[C@H]1O[C@@H](O[C@H]2[C@@H](O)C[C@H](O[C@H]3[C@@H](O)C[C@H](O[C@H]4CC[C@@]5(C)[C@H](CC[C@@H]6[C@@H]5CC[C@]5(C)[C@@H](C7=CC(=O)OC7)CC[C@]65O)C4)O[C@@H]3C)O[C@@H]2C)C[C@H](O)[C@@H]1O` [digitoxin] are 6.9%, -34.2% and 16.8%.
With `C[C@H]1O[C@@H](n2cc(F)c(=O)[nH]c2=O)[C@H](O)[C@@H]1O` [DOXIFLURIDINE], the “PERCENT VIABILITY” value in the data set with HEK293T cells is 382.9%. Moreover, in the data set on SARS-CoV-2 FSE (−1 PRF), the inhibition at 10 µM was -31.7% and the activation at 10 µM is 17.1%.
On the same counts, the results for `CCOC(=O)OC(C)OC1=C(C(=O)Nc2ccccn2)N(C)S(=O)(=O)c2ccccc21` (stereo not drawn) [AMPIROXICAM] are 284.3%, -57.1% and 30.8%.
On the same counts, the results for `O=C(Nc1ccc(Cl)cc1)Nc1ccc(Cl)c(C(F)(F)F)c1` [halocarban, 3-(4-chlorophenyl)-1-[4-chloro-3-(trifluoromethyl)phenyl]urea] are 54.7%, -48.8% and 23.9%.
On the same counts, the results for `CCN(CC)CCNC(=O)c1cc(Br)c(N)cc1OC` [BROMOPRIDE] are 113.8%, 65.7% and -35.5%.
Consider `CC[n+]1c(-c2ccccc2)c2cc(N)ccc2c2ccc(N)cc21` [HOMIDIUM BROMIDE], for which the “PERCENT VIABILITY” value in the data set on HEK293T cells is reported as 310.9%. In the data set on SARS-CoV-2 FSE (−1 PRF), the inhibition at 10 µM came to 107% and the activation at 10 µM was -58%.
Regarding `CN(C)c1ccc(C(=C2C=CC(=[N+](C)C)C=C2)c2ccc(N(C)C)cc2)cc1` [GENTIAN VIOLET], in the data set on HEK293T cells, the “PERCENT VIABILITY” value is on record as 12.5%. Besides, in the data set with SARS-CoV-2 FSE (−1 PRF), the inhibition at 10 µM is 66.6% and the activation at 10 µM is -34.5%.
Turning to `CCCCC(=O)O[C@H]1CC[C@H]2[C@@H]3CCc4cc(O)ccc4[C@H]3CC[C@]12C` [ESTRADIOL VALERATE], the “PERCENT VIABILITY” value in the data set with HEK293T cells is 204.4%. Further, in the data set on SARS-CoV-2 FSE (−1 PRF), the inhibition at 10 µM worked out at 20.9% and the activation at 10 µM was -10.8%.
In the case of `CC[C@@]1(O)C[C@H](OC2CC(N(C)C)C(OC3CC(O)C(OC4CCC(=O)C(C)O4)C(C)O3)C(C)O2)c2c(cc3c(c2O)C(=O)c2c(O)cccc2C3=O)[C@H]1C(=O)OC` (stereo partly drawn) [aclarubicin, methyl (1R,2R,4S)-4-[4-dimethylamino-5-[4-hydroxy-6-methyl-5-(6-methyl-5-oxooxan-2-yl)oxyoxan-2-yl]oxy-6-methyloxan-2-yl]oxy-2-ethyl-2,5,7-trihydroxy-6,11-dioxo-3,4-dihydro-1H-tetracene-1-carboxylate], the entries for the “PERCENT VIABILITY” value with HEK293T cells and in the data set with HEK293T cells (listed as Aclarubicin) were 52.5% and 54.77%, respectively. The inhibition at 10 µM in the data set on SARS-CoV-2 FSE (−1 PRF) was 33.3%.
On to `C[C@@H]1O[C@@H](O[C@H]2C[C@@H](O)[C@]3(CO)[C@H]4[C@H](O)C[C@]5(C)[C@@H](C6=CC(=O)OC6)CC[C@]5(O)[C@@H]4CC[C@]3(O)C2)[C@H](O)[C@H](O)[C@H]1O` [Ouabain], for which the “PERCENT VIABILITY” value in the data set with HEK293T cells came out at 16.4%. Also, in the data set on SARS-CoV-2 FSE (−1 PRF), the inhibition at 10 µM was -29.7% and the activation at 10 µM was 15.7%.
On the same counts, the results for `O=[N+]([O-])c1cc(Cl)cc(-c2cc(Cl)cc([N+](=O)[O-])c2O)c1O` [niclofolan, 4-chloro-2-(5-chloro-2-hydroxy-3-nitrophenyl)-6-nitrophenol] are 68.0%, -36.6% and 17.2%.
